Converted amounts (≈) assume the structure as drawn.
Assays:
Assay in all cases: In vitro antibacterial evaluation: minimum inhibitory concentration (MIC), broth dilution method
Assay type in all cases: cell-based
Settings in all cases: 18 hours at 35° C.
Enterococcus sp. = test system: Enterococcus sp.
In short: (§1)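 Susceptibility determined by NCCLS-recommended broth dilution (M7-A2), Muller-Hinton II […]. Concentration span 64-0.06 μg/mL, inoculum 5×10^5 CFU/mL. Isolates include strains resistant to methicillin, penicillin and/or vancomycin.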

Escherichia coli = test system: Escherichia coli
In short: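 First, organisms are seeded at 5×10^5 CFU/mL into Muller-Hinton II […]. Next, antibiotic is applied across 64-0.06 μg/mL by broth dilution (NCCLS M7-A2). Finally, the lowest inhibitory concentration is recorded as MIC.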

Staphylococcus sp. = test system: Staphylococcus sp.
In short: as §1

Streptococcus sp. = test system: Streptococcus sp.
In short: as §1

[1] = Enterococcus faecalis (GC 2242)
[2] = Enterococcus faecalis (GC 2691)
[3] = Enterococcus faecalis (GC 3059)
[4] = broth dilution, inoculum 5×10^5 CFU/mL
[5] = Streptococcus agalactiae (GC 4564)
[6] = Streptococcus pneumoniae (ATCC 6301)
[7] = Streptococcus pneumoniae (GC 1894)
[8] = Streptococcus pneumoniae (GC 4565)
[9] = Streptococcus pyogenes (GC 4563)

SMILES: COc1ccc(COCC2OC(OC3C(CO)OC(Oc4ccc(CC5NC(=O)C(C(C)c6ccccc6)NC(=O)CNC(=O)C(CO)NC(=O)C(C(O)C6CNC(=N)N6C6OC(CO)C(O)C(O)C6O)NC(=O)C(C(O)C6CNC(=N)N6)NC5=O)cc4)C(O)C3O)C(O)C(O)C2O)c2ccccc12 (stereo not drawn) [Example 240, Cyclo[glycyl-β-methylphenylalanyl-O-[4-O-[6-O-[(4-methoxy-1-naphthyl)methyl]hexo-pyranosyl]hexopyranosyl]tyrosyl-3-(2-iminoimidazolidin-4-yl)seryl-3-(3-hexopyranosyl-2-iminoimidazolidin-4-yl)serylseryl]]
- MIC Enterococcus avium (GC 4558) (Enterococcus sp.): 4 µg/mL (≈ 2.73 µM)
- MIC Enterococcus faecalis (ATCC 29212) (Enterococcus sp.): 16 µg/mL (≈ 10.9 µM)
- MIC Enterococcus faecalis (GC 2242) (Enterococcus sp.; [1]): 16 µg/mL (≈ 10.9 µM)
- MIC Enterococcus faecalis (GC 2691) (Enterococcus sp.; [2]): 8 µg/mL (≈ 5.46 µM)
- MIC Enterococcus faecalis (GC 3059) (Enterococcus sp.; [3]): 8 µg/mL (≈ 5.46 µM)
- MIC Enterococcus faecalis (GC 4552) (Enterococcus sp.): 16 µg/mL (≈ 10.9 µM)
- MIC Enterococcus faecalis (GC 4553) (Enterococcus sp.): 16 µg/mL (≈ 10.9 µM)
- MIC Enterococcus faecalis (GC 4554) (Enterococcus sp.): 16 µg/mL (≈ 10.9 µM)
- MIC Enterococcus faecalis (GC 6189) (Enterococcus sp.): 8 µg/mL (≈ 5.46 µM)
- MIC Enterococcus faecium (GC 2243) (Enterococcus sp.): 16 µg/mL (≈ 10.9 µM)
- MIC Enterococcus faecium (GC 4556) (Enterococcus sp.): 16 µg/mL (≈ 10.9 µM)
- MIC Enterococcus faecium (GC 4557) (Enterococcus sp.): 2 µg/mL (≈ 1.36 µM)
- MIC Enterococcus faecalis (GC 2242) (Enterococcus sp.; [4]): 16 µg/mL (≈ 10.9 µM)
- MIC Enterococcus faecalis (GC 2691) (Enterococcus sp.; [4]): 8 µg/mL (≈ 5.46 µM)
- MIC Enterococcus faecalis (GC 3059) (Enterococcus sp.; [4]): 8 µg/mL (≈ 5.46 µM)
- MIC Escherichia coli (GC 4560) (Escherichia coli): 2 µg/mL (≈ 1.36 µM)
- MIC Coagulase Negative Staphylococcus (GC 4547) (Staphylococcus sp.): 4 µg/mL (≈ 2.73 µM)
- MIC Coagulase Negative Staphylococcus (GC 4548) (Staphylococcus sp.): 2 µg/mL (≈ 1.36 µM)
- MIC Coagulase Negative Staphylococcus (GC 4549) (Staphylococcus sp.): 2 µg/mL (≈ 1.36 µM)
- MIC Coagulase Negative Staphylococcus (GC 4551) (Staphylococcus sp.): 2 µg/mL (≈ 1.36 µM)
- MIC Coagulase Negative Staphylococcus (GC 6257) (Staphylococcus sp.): 2 µg/mL (≈ 1.36 µM)
- MIC Staphylococcus aureus (ATCC 29213) (Staphylococcus sp.): 4 µg/mL (≈ 2.73 µM)
- MIC Staphylococcus aureus (GC 1131) (Staphylococcus sp.): 4 µg/mL (≈ 2.73 µM)
- MIC Staphylococcus aureus (GC 3051) (Staphylococcus sp.): 0.5 µg/mL (≈ 0.341 µM)
- MIC Staphylococcus aureus (GC 3053) (Staphylococcus sp.): 4 µg/mL (≈ 2.73 µM)
- MIC Staphylococcus aureus (GC 4541) (Staphylococcus sp.): 1 µg/mL (≈ 0.682 µM)
- MIC Staphylococcus aureus (GC 4542) (Staphylococcus sp.): 2 µg/mL (≈ 1.36 µM)
- MIC Staphylococcus aureus (GC 4544) (Staphylococcus sp.): 4 µg/mL (≈ 2.73 µM)
- MIC Staphylococcus aureus (GC 4545) (Staphylococcus sp.): 4 µg/mL (≈ 2.73 µM)
- MIC Staphylococcus aureus-SMITH (GC 4543) (Staphylococcus sp.): 2 µg/mL (≈ 1.36 µM)
- MIC Staphylococcus haemolyticus (GC 4546) (Staphylococcus sp.): 2 µg/mL (≈ 1.36 µM)
- MIC Streptococcus agalactiae (GC 4564) (Streptococcus sp.; [5]): 0.5 µg/mL (≈ 0.341 µM)
- MIC Streptococcus pneumoniae (ATCC 6301) (Streptococcus sp.; [6]): <0.12 µg/mL
- MIC Streptococcus pneumoniae (GC 1894) (Streptococcus sp.; [7]): <0.12 µg/mL
- MIC Streptococcus pneumoniae (GC 4565) (Streptococcus sp.; [8]): 0.25 µg/mL (≈ 0.171 µM)
- MIC Streptococcus pyogenes (GC 4563) (Streptococcus sp.; [9]): 0.5 µg/mL (≈ 0.341 µM)
- MIC Streptococcus agalactiae (GC 4564) (Streptococcus sp.; [4]): 0.5 µg/mL (≈ 0.341 µM)
- MIC Streptococcus pneumoniae (ATCC 6301) (Streptococcus sp.; [4]): <0.12 µg/mL
- MIC Streptococcus pneumoniae (GC 1894) (Streptococcus sp.; [4]): <0.12 µg/mL
- MIC Streptococcus pneumoniae (GC 4565) (Streptococcus sp.; [4]): 0.25 µg/mL (≈ 0.171 µM)
- MIC Streptococcus pyogenes (GC 4563) (Streptococcus sp.; [4]): 0.5 µg/mL (≈ 0.341 µM)

SMILES: COc1ccc(COCC2OC(OC3C(CO)OC(Oc4ccc(CC5NC(=O)C(C(C)c6ccccc6)NC(=O)CNC(=O)C(CO)NC(=O)C(C(O)C6CNC(=N)N6C6OC(CO)C(O)C(O)C6O)NC(=O)C(C(O)C6CNC(=N)N6)NC5=O)cc4)C(O)C3O)C(O)C(O)C2O)cc1F (stereo not drawn) [Example 237]
- MIC Enterococcus avium (GC 4558) (Enterococcus sp.): 16 µg/mL (≈ 11.2 µM)
- MIC Enterococcus faecalis (ATCC 29212) (Enterococcus sp.): 16 µg/mL (≈ 11.2 µM)
- MIC Enterococcus faecalis (GC 2242) (Enterococcus sp.; [1]): 16 µg/mL (≈ 11.2 µM)
- MIC Enterococcus faecalis (GC 2691) (Enterococcus sp.; [2]): 16 µg/mL (≈ 11.2 µM)
- MIC Enterococcus faecalis (GC 3059) (Enterococcus sp.; [3]): 32 µg/mL (≈ 22.3 µM)
- MIC Enterococcus faecalis (GC 4552) (Enterococcus sp.): 16 µg/mL (≈ 11.2 µM)
- MIC Enterococcus faecalis (GC 4553) (Enterococcus sp.): 16 µg/mL (≈ 11.2 µM)
- MIC Enterococcus faecalis (GC 4554) (Enterococcus sp.): 32 µg/mL (≈ 22.3 µM)
- MIC Enterococcus faecalis (GC 6189) (Enterococcus sp.): 16 µg/mL (≈ 11.2 µM)
- MIC Enterococcus faecium (GC 2243) (Enterococcus sp.): 16 µg/mL (≈ 11.2 µM)
- MIC Enterococcus faecium (GC 4556) (Enterococcus sp.): 16 µg/mL (≈ 11.2 µM)
- MIC Enterococcus faecium (GC 4557) (Enterococcus sp.): 4 µg/mL (≈ 2.79 µM)
- MIC Enterococcus faecalis (GC 2242) (Enterococcus sp.; [4]): 16 µg/mL (≈ 11.2 µM)
- MIC Enterococcus faecalis (GC 2691) (Enterococcus sp.; [4]): 16 µg/mL (≈ 11.2 µM)
- MIC Enterococcus faecalis (GC 3059) (Enterococcus sp.; [4]): 32 µg/mL (≈ 22.3 µM)
- MIC Escherichia coli (ATCC 25922) (Escherichia coli; Escherichia coli (ATCC 25922)): 64 µg/mL (≈ 44.6 µM)
- MIC Escherichia coli (GC 4559) (Escherichia coli; Escherichia coli (GC 4559)): 64 µg/mL (≈ 44.6 µM)
- MIC Escherichia coli (GC 4560) (Escherichia coli): 1 µg/mL (≈ 0.698 µM)
- MIC Coagulase Negative Staphylococcus (GC 4547) (Staphylococcus sp.): 2 µg/mL (≈ 1.4 µM)
- MIC Coagulase Negative Staphylococcus (GC 4548) (Staphylococcus sp.): 1 µg/mL (≈ 0.698 µM)
- MIC Coagulase Negative Staphylococcus (GC 4549) (Staphylococcus sp.): 1 µg/mL (≈ 0.698 µM)
- MIC Coagulase Negative Staphylococcus (GC 4551) (Staphylococcus sp.): 4 µg/mL (≈ 2.79 µM)
- MIC Coagulase Negative Staphylococcus (GC 6257) (Staphylococcus sp.): 1 µg/mL (≈ 0.698 µM)
- MIC Staphylococcus aureus (ATCC 29213) (Staphylococcus sp.): 4 µg/mL (≈ 2.79 µM)
- MIC Staphylococcus aureus (GC 1131) (Staphylococcus sp.): 4 µg/mL (≈ 2.79 µM)
- MIC Staphylococcus aureus (GC 3051) (Staphylococcus sp.): 2 µg/mL (≈ 1.4 µM)
- MIC Staphylococcus aureus (GC 3053) (Staphylococcus sp.): 4 µg/mL (≈ 2.79 µM)
- MIC Staphylococcus aureus (GC 4541) (Staphylococcus sp.): 2 µg/mL (≈ 1.4 µM)
- MIC Staphylococcus aureus (GC 4542) (Staphylococcus sp.): 8 µg/mL (≈ 5.58 µM)
- MIC Staphylococcus aureus (GC 4544) (Staphylococcus sp.): 4 µg/mL (≈ 2.79 µM)
- MIC Staphylococcus aureus (GC 4545) (Staphylococcus sp.): 2 µg/mL (≈ 1.4 µM)
- MIC Staphylococcus aureus-SMITH (GC 4543) (Staphylococcus sp.): 2 µg/mL (≈ 1.4 µM)
- MIC Staphylococcus haemolyticus (GC 4546) (Staphylococcus sp.): 1 µg/mL (≈ 0.698 µM)
- MIC Streptococcus agalactiae (GC 4564) (Streptococcus sp.; [5]): 2 µg/mL (≈ 1.4 µM)
- MIC Streptococcus pneumoniae (ATCC 6301) (Streptococcus sp.; [6]): 0.5 µg/mL (≈ 0.349 µM)
- MIC Streptococcus pneumoniae (GC 1894) (Streptococcus sp.; [7]): 0.25 µg/mL (≈ 0.174 µM)
- MIC Streptococcus pneumoniae (GC 4565) (Streptococcus sp.; [8]): 0.5 µg/mL (≈ 0.349 µM)
- MIC Streptococcus pyogenes (GC 4563) (Streptococcus sp.; [9]): 1 µg/mL (≈ 0.698 µM)
- MIC Streptococcus agalactiae (GC 4564) (Streptococcus sp.; [4]): 2 µg/mL (≈ 1.4 µM)
- MIC Streptococcus pneumoniae (ATCC 6301) (Streptococcus sp.; [4]): 0.5 µg/mL (≈ 0.349 µM)
- MIC Streptococcus pneumoniae (GC 1894) (Streptococcus sp.; [4]): 0.25 µg/mL (≈ 0.174 µM)
- MIC Streptococcus pneumoniae (GC 4565) (Streptococcus sp.; [4]): 0.5 µg/mL (≈ 0.349 µM)
- MIC Streptococcus pyogenes (GC 4563) (Streptococcus sp.; [4]): 1 µg/mL (≈ 0.698 µM)
